Laboratory results: ChEMBL document CHEMBL1146968, “Novel skeleton terpenes from Celastrus hypoleucus with anti-tumor activities” (Bioorg Med Chem Lett, 2006)
≈ marks a conversion by molar mass, not a printed value.

Key:
Type in all cases: functional, cell-based
RKO = assay: Antitumor activity against human RKO cell line by MTT assay
SMMC-7721 = assay: Antitumor activity against human SMMC7721 cell line by MTT assay
K562 = assay: Antitumor activity against human K562 cell line by MTT assay
Bcap37 = assay: Antitumor activity against human Bcap37 cell line by MTT assay

CC1=C(C)[C@@H]2CC(=O)c3cc(O)c(O)cc3[C@@]2(C)CC1 [CELAHYPODIOL]
IC50 (RKO): 27.2 µg/mL (≈ 99.7 µM)
IC50 (SMMC-7721): 38 µg/mL (≈ 140 µM)
IC50 (K562): 16.2 µg/mL (≈ 59.5 µM)
IC50 (Bcap37): 24.4 µg/mL (≈ 89.7 µM)

CC1(C)CC[C@]2(C)CC[C@]3(C)C(=CC[C@@H]4[C@@]5(C)CC[C@H](O)C(C)(C)[C@@H]5[C@@H](O)C[C@]43C)C2C1 (some centres not stated)
IC50 (RKO): 12.2 µg/mL (≈ 27.6 µM)
IC50 (SMMC-7721): 22.7 µg/mL (≈ 51.3 µM)
IC50 (K562): 11.2 µg/mL (≈ 25.3 µM)
IC50 (Bcap37): 14.6 µg/mL (≈ 32.9 µM)

CO[C@@]12[C@H](COC(N)=O)C3=C(C(=O)C(C)=C(N)C3=O)N1C[C@@H]1N[C@@H]12 [MITOMYCIN]
IC50 (RKO): 1.75 µg/mL (≈ 5.23 µM)
IC50 (SMMC-7721): 2.44 µg/mL (≈ 7.3 µM)
IC50 (K562): 3.35 µg/mL (≈ 10 µM)
IC50 (Bcap37): 2.33 µg/mL (≈ 6.97 µM)
